From patent US6506766B1 (Abbott Laboratories, priority 1998, dated 2003)
Like-named read-outs stand apart in the source and are kept apart here.

Experiments:
[1] = biological target: T1, human progesterone receptor-A [PRA] isoform (Homo sapiens, UniProt P06401); assay: Radioligand binding with human progesterone receptor cytosol ([3H]-progesterone competition)
T1 construct: host or cells: insect SF21 cells (baculovirus)
T1 sequence (P06401 1-769 isoform P06401-2): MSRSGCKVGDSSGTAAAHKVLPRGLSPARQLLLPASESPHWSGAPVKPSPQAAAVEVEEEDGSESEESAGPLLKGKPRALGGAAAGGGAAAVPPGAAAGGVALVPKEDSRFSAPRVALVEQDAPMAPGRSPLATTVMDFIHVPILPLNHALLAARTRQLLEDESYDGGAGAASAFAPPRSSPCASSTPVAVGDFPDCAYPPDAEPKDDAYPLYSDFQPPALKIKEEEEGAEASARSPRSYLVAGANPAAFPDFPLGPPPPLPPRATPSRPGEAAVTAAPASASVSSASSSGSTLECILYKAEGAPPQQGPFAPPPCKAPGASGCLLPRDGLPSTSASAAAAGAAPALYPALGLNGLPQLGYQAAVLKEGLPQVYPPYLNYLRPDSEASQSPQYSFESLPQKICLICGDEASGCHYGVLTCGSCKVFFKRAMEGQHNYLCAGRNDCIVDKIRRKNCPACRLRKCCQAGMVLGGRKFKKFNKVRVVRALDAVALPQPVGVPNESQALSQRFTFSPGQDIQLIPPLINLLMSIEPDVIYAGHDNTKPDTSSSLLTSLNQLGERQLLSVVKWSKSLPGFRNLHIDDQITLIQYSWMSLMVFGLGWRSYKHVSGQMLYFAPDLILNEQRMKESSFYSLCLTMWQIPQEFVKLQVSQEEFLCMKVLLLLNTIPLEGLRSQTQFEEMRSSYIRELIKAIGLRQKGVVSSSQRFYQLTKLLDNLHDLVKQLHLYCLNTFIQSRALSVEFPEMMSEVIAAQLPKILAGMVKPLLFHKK

[2] = biological target: T2, human glucocorticoid receptor-α [GRX] isoform (Homo sapiens, UniProt P04150); assay: Radioligand binding with human glucocorticoid receptor cytosol ([3H]-dexamethasone competition)
T2 construct: host or cells: insect SF21 cells (baculovirus)
T2 sequence (P04150 1-777): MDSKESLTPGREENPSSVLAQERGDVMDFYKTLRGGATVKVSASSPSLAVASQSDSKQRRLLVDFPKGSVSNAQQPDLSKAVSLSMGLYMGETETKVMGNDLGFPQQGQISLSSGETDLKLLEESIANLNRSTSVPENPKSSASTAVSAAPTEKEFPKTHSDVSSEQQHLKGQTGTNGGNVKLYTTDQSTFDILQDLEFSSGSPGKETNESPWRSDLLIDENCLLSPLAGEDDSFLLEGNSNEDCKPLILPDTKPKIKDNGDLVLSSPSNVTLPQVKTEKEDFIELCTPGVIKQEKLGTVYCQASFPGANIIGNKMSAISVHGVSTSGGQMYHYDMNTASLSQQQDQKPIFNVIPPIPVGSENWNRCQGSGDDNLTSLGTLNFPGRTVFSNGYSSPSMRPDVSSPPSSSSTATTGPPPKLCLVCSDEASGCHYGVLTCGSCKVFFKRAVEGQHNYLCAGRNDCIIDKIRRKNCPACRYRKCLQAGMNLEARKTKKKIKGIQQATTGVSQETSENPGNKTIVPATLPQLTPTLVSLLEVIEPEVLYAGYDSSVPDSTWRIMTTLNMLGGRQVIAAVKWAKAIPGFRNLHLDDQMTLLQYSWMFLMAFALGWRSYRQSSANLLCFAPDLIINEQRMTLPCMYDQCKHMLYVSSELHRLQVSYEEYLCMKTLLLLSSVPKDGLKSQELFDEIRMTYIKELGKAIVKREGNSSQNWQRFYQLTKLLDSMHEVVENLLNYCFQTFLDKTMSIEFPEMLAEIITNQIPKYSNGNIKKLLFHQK

[3] = PRA cytosol expressed in insect SF21 cells, [3H]Prog ~0.8 nM, 4° C. overnight, Ki by Cheng-Prusoff, KL ~4.5 nM, read-out: Ki (nM) PR
[4] = GRX cytosol expressed in insect SF21 cells, [3H]-Dex ~0.9 nM, 4° C. overnight, Ki by Cheng-Prusoff, KL ~[…], read-out: Ki (nM) GR

Ki [1, 3] [nM]	Ki ([2]; Ki (nM) GR, GRX cytosol expressed in insect SF21 cells, [3H]-Dex ~0.9 nM, 4° C. overnight, Ki by Cheng-Prusoff, KL ~[…]) [nM]	Ki [2, 4] [nM]	Structure (SMILES)	Ki ([1]; Ki (nM) PR) [nM]	Ki ([2]; Ki (nM) GR) [nM]
487	1.2		COc1cccc2c1-c1ccc3c(c1[C@H]([C@H]1C=CCCC1)O2)C(C)=CC(C)(C)N3 [Example 392, (−)(5S,3′R)2,5-Dihydro-10-methoxy-2,2,4-trimethyl-5-(cyclohexen-3-yl)-1H-[1]benzopyrano[3,4-f]quinoline]		
109		0.89	CC/C=C\CC1Oc2ccc(O)c(OC)c2-c2ccc3c(c21)C(C)=CC(C)(C)N3 (centres unmarked) [Example 394]		
2120		6.3	CSCOc1cccc(C2Oc3cccc(OC(F)F)c3-c3ccc4c(c32)C(C)=CC(C)(C)N4)c1 (centres unmarked) [Example 396]		
1080		6.7	COc1c(O)ccc2c1-c1ccc3c(c1C(c1cccc(O)c1)O2)C(C)=CC(C)(C)N3 (centres unmarked) [Example 398, 2,5-Dihydro-9-hydroxy-10-methoxy-2,2,4-trimethyl-5-(3-hydroxyphenyl)-1H-[1]benzopyrano[3,4-f]quinoline]		
5960		3.5	COc1c(O)ccc2c1-c1ccc3c(c1C(c1cccc(OCSC)c1)O2)C(C)=CC(C)(C)N3 (centres unmarked) [Example 400, 2,5-Dihydro-9-hydroxy-10-methoxy-2,2,4-trimethyl-5-(3-(methylthiomethoxy)phenyl)-1H-[1]benzopyrano[3,4-f]quinoline]		
6080		134	CC1=CC(C)(C)Nc2ccc3c(c21)C(=Cc1ccccc1)Oc1ccc(O)c(Cl)c1-3 [Example 401, 9-Hydroxy-10-chloro-5-(phenylmethylene)-2,2,4-trlimethyl-1H-2,5-dihydro-[1]benzopyrano[3,4-f]quinoline]		
			COc1c(O)ccc2c1-c1ccc3c(c1C(c1ccccc1OC(=O)N(C)C)O2)C(C)=CC(C)(C)N3 (centres unmarked) [Example 402]	10100	3.3
			COc1c(OC(=O)N(C)C)ccc2c1-c1ccc3c(c1C(c1ccccc1OC(=O)N(C)C)O2)C(C)=CC(C)(C)N3 (centres unmarked) [Example 403, 2,5-Dihydro-9-N,N-dimethylcarbamoyloxy-10-methoxy-2,2,4-trimethyl-5-([2-N,N-dimethylcarbamoyloxy]phenyl)-1H-[1]benzopyrano[3,4-f]quinoline]	≥ 10000	131
49.7		1.3	CCC1Oc2ccc(O)c(Cl)c2-c2ccc3c(c21)C(C)=CC(C)(C)N3 (centres unmarked) [Example 404, 2,5-Dihydro-9-hydroxy-10-chloro-2,2,4-trimethyl-5-ethyl-1H-[1]benzopyrano[3,4-f]quinoline]		
75.1		1.1	CC1=CC(C)(C)Nc2ccc3c(c21)C(C(C)C)Oc1ccc(O)c(Cl)c1-3 (centres unmarked) [Example 405, 2,5-Dihydro-9-hydroxy-10-chloro-2,2,4-trimethyl-5-isopropyl-1H-[1]benzopyrano[3,4-f]quinoline]		
97.9		2.3	COc1c(O)ccc2c1-c1ccc3c(c1C(=Cc1ccccc1)O2)C(C)=CC(C)(C)N3 [Example 406, 9-Hydroxy-10-methoxy-5-(phenylmethylene)-2,2,4-trimethyl-1H-2,5-dihydro-[1]benzopyrano[3,4-f]quinoline]		
16.4		1.8	CCCCC1Oc2ccc(O)c(Cl)c2-c2ccc3c(c21)C(C)=CC(C)(C)N3 (centres unmarked) [Example 407, 2,5-Dihydro-9-hydroxy-10-chloro-2,2,4-trimethyl-5-butyl-1H-[1]benzopyrano[3,4-f]quinoline]		
14100		112	COc1c(O)ccc2c1-c1ccc3c(c1C(c1nccs1)O2)C(C)=CC(C)(C)N3 (centres unmarked) [Example 408, 2,5-Dihydro-9-hydroxy-10-methoxy-2,2,4-trimethyl-5-(1-thiazol-2-yl)-1H-[1]benzopyrano[3,4-f]quinoline]		
42		2.7	CC1=CC(C)(C)Nc2ccc3c(c21)C(CC(C)C)Oc1ccc(O)c(Cl)c1-3 (centres unmarked) [Example 409, 2,5-Dihydro-9-hydroxy-10-chloro-2,2,4-trimethyl-5-(2-methylpropyl)-1H-[1]benzopyrano[3,4-f]quinoline]		
25.7		1.1	C=CCC1Oc2ccc(CO)c(Cl)c2-c2ccc3c(c21)C(C)=CC(C)(C)N3 (centres unmarked) [Example 410, 2,5-Dihydro-9-hydroxymethyl-10-chloro-2,2,4-trimethyl-5-allyl-1H-[1]benzopyrano[3,4-f]quinoline]		
222		9	COc1c(O)ccc2c1-c1ccc3c(c1C(=Cc1cccc(F)c1)O2)C(C)=CC(C)(C)N3 [Example 412, 9-Hydroxy-10-methoxy-5-([3-fluorophenyl]methylene)-2,2,4-trimethyl-1H-2,5-dihydro-[1]benzopyrano[3,4-f]quinoline]		
60.8		0.22	CC1=CC(C)(C)Nc2ccc3c(c21)C(=Cc1ccccn1)Oc1ccc(O)c(Cl)c1-3 [Example 413, 9-Hydroxy-10-chloro-5-([2-pyridyl]methylene)-2,2,4-trimethyl-1H-2,5-dihydro-[1]benzopyrano[3,4-f]quinoline]		
394		3.1	COc1c(O)ccc2c1-c1ccc3c(c1C(c1cc(Cl)cc(Cl)c1)O2)C(C)=CC(C)(C)N3 (centres unmarked) [Example 416, 2,5-Dihydro-9-hydroxy-10-methoxy-2,2,4-trimethyl-5-(3,5-dichlorophenyl)-1H-[1]benzopyrano[3,4-f]quinoline]		
10.5		3	CC1=C[C@@H]([C@@H]2Oc3ccc(O)c(Cl)c3-c3ccc4c(c32)C(C)=CC(C)(C)N4)CCC1 [Example 417, (−)(5S,3′S)2,5-Dihydro-9-hydroxy-10-chloro-2,2,4-trimethyl-5-(1-methylcyclohexen-3-yl)-1H-[1]benzopyrano[3,4-f]quinoline]		
2.1		1.4	CC1=C[C@H]([C@@H]2Oc3ccc(O)c(Cl)c3-c3ccc4c(c32)C(C)=CC(C)(C)N4)CCC1 [Example 418]		
286		56.9	CC1=C[C@@H]([C@H]2Oc3ccc(O)c(Cl)c3-c3ccc4c(c32)C(C)=CC(C)(C)N4)CCC1 [Example 419, (+)(5R,3′S)2,5-Dihydro-9-hydroxy-10-chloro-2,2,4-trimethyl-5-(1-methylcyclohexen-3-yl)-1H-[1]benzopyrano[3,4-f]quinoline]		
2400		125	CC1=C[C@H]([C@H]2Oc3ccc(O)c(Cl)c3-c3ccc4c(c32)C(C)=CC(C)(C)N4)CCC1 [Example 420]		
8180		0.67	COc1c(OC(=O)CCC(=O)N(C)C)ccc2c1-c1ccc3c(c1C(C(C)C)O2)C(C)=CC(C)(C)N3 (centres unmarked) [Example 423, 2,5-Dihydro-9-(4-N,N-dimethylamino-4-oxo-butanoyloxy)-10-methoxy-2,2,4-trimethyl-5-(1-methylethyl)-1H-[1]benzopyrano[3,4-f]quinoline]		
1950		0.84	COc1c(OC(=O)CCC(=O)N(C)C)ccc2c1-c1ccc3c(c1C(Cc1ccccc1)O2)C(C)=CC(C)(C)N3 (centres unmarked) [Example 424, 2,5-Dihydro-9-(4-N,N-dimethylamino-4-oxo-butanoyloxy)-10-methoxy-5-(phenylmethyl)-2,2,4-trimethyl-1H-[1]benzopyrano[3,4-f]quinoline]		

Structure (SMILES)	Ki [1, 3] [nM]	Ki ([2]; Ki (nM) GR, GRX cytosol expressed in insect SF21 cells, [3H]-Dex ~0.9 nM, 4° C. overnight, Ki by Cheng-Prusoff, KL ~[…]) [nM]	Ki [2, 4] [nM]	Ki ([1]; Ki (nM) PR) [nM]	Ki ([2]; Ki (nM) GR) [nM]
COc1c(O)ccc2c1-c1ccc3c(c1C(c1cccc(OC(C)=O)c1)O2)C(C)=CC(C)(C)N3 (centres unmarked) [Example 395, 2,5-Dihydro-9-hydroxy-10-methoxy-2,2,4-trimethyl-5-(3-acetoxyphenyl)-1H-[1]benzopyrano[3,4-f]quinoline]	1210		2.1		
